In patent publication US6548041B1, “Dopamine transporter imaging agents” (Organix, Inc., priority 1999, dated 2003):

Assays:
DAT sites in striatum [1] = assay: SPECT imaging of monkey brain with 99mTc labeled tracers; assay type: in vivo, Rhesus monkeys; conditions: SPECT images
Procedure: (§1) All SPECT images were acquired with a MultiSPECT 2 gamma camera (Siemens, Hoffman Estates, Ill.) equipped with fan-beam collimators and peaked to the 140 KeV photopeak of ^99mTc (15% window). This camera has intrinsic resolution of 4.6 mm (FWHM), and a sensitivity of ˜240 cps/mCi. Images were acquired over 360° (60 projections/head, 128×128 matrix) in the continuous mode. Image reconstruction was performed using a conventional filtered back-projection algorithm to an in-plane resolution of 10 mm FWHM and attenuation correction via the Chang method.
(§2) Rhesus monkeys weighing approximately 7 kg were anesthetized with ketamine/xylazine (15.0 and 1.5 mg/kg) and positioned prone on the imaging bed of the SPECT camera. Before the start of imaging, a venous catheter was inserted in a peripheral vein for radiopharmaceutical administration. The heads of the animals were immobilized with a custom fabricated head holder. Approximately 20-25 mCi of ^99mTc labeled O-1505T, O-1508T, O-1561T or O-1560T was injected intravenously over 60 seconds. Dynamic SPECT imaging was initiated at the end of the infusion and consisted of 2 min. acquisitions during the first hour and 5 min. acquisitions thereafter.
(§3) SPECT slices with greatest striatal activity or in which the occipital cortex was well visualized were summed and regions of interest (ROI's) were constructed. In the striatal planes, ROI's were placed on the right and left striatum (caudate+putamen). Radioactivity in the right and left striatum were averaged. ROI radioactivities (cpm/cc) were decay corrected to the time of injection. The difference between striatal and occipital cortex activity (specific binding) was calculated for each image and was plotted as a function of time. Corrections for scattered fraction and partial volume effects were not performed.

DAT sites in striatum [2] = molecular target: T1, DAT sites in striatum (Macaca mulatta, UniProt Q7JHP9); assay: as above; assay type: in vivo, Rhesus monkeys; conditions: for time after injection to excellent contrast between striatum and the rest of the brain: i.v., normal monkeys; for accumulation of radioactivity in striatum vs other areas of the brain (SPECT images): images acquired between 30 and 50 minutes after injection; for striatal to occipital cortex ratio: region of interest analysis, SPECT images 30-50 minutes after i.v. injection of 20-25 mCi
T1 construct: from tissue; host or cells: brain (striatum) of living rhesus monkeys, imaged in vivo
Procedure: as §1, §2, §3

DAT sites in striatum [3] = molecular target: T1, DAT sites in striatum; assay: SPECT of MPTP treated monkeys (animal model of Parkinson's disease); assay type: in vivo, rhesus monkey; conditions: one month after MPTP treatment
Description: The neurotoxin MPTP ([…]), when administered to monkeys, produces a spectrum of motor, cognitive, biochemical and morphological changes that is not replicated in rodents. MPTP-treated monkeys develop neurological deficits (resting tremor, rigidity, akinesia, postural abnormalities), morphological changes (cell loss in the substantia nigra, ventral tegmental area, retrorubal fields) and biochemical changes (severe depletion of DA and decreases in norepinephrine and serotonin) that closely, parallel idiopathic PD and post-encephalitic Parkinsonism.
Two monkeys were treated with MPTP; 3-5 doses of 0.6 mg/kg administered over 10 days. Treatment was performed under ketamine anesthesia (15 mg/kg). This dose of MPTP, has previously been used to produce Parkinsonism within 2-3 weeks and depletion of ^3H or ^11C. CFT binding sites by one month. Animals treated in this manner were expected to show an inverse relationship between SPECT tracer binding and motor dysfunction. […]
SPECT slices with greatest striatal activity or in which the occipital cortex was well visualized were summed and regions of interest (ROI's) were constructed. […] Radioactivity in the right and left striatum were averaged. […] The difference between striatal and occipital cortex activity (specific binding) was calculated for each image and was plotted as a function of time. […]

[4] = Biodistribution and radiation dosimetry (MIRdose); assay type: in vivo, Sprague-Dawley rats; conditions: for clearance from tissues (biodistribution): rat, 5 min to 24 hrs after injection
Procedure: Groups of male Sprague-Dawley rats were in injected with ˜10 mCi of ^99mTc labeled O-1505T and O-1561T. At time intervals between 5 min. and 24 hrs after injection, groups of 6 animals injected with each radiopharmaceutical were sacrificed and biodistribution was measured. Samples of blood, heart, lung, liver, spleen, kidney, adrenal, stomach, GI tract, testes, bone, bone marrow and skeletal muscle were weighed and radioactivity was measured with a well type gamma counter (LKB model #1282, Wallac Oy, Finland). To correct for radioactive decay and permit calculation of the concentration of radioactivity in each organ as a fraction of the administered dose, aliquots of the injected doses were counted simultaneously. The results were expressed as percent injected dose per gram (%I.D./g) and radiation dosimetry was estimated by the MIRdose method.

DAT sites = molecular target: T2, DAT sites (Macaca mulatta, UniProt Q7JHP9); assay: Selectivity for DAT sites in the monkey brain (displacement by unlabeled CFT); assay type: in vivo
T2 construct: from tissue; host or cells: brain (striatum) of living rhesus monkeys, imaged in vivo
Procedure: For this study, a monkey was positioned supine on the imaging table of the MultiSPECT 2 gamma camera and injected with ˜20 mCi of ^99mTc O-1560T as described above. At approximately 20 min. after radiopharmaceutical administration, the animal was injected with CFT (1.0 mg/kg) and imaging was continued for an additional 70 min.
as §3

T2 sequence (Q7JHP9 1-620): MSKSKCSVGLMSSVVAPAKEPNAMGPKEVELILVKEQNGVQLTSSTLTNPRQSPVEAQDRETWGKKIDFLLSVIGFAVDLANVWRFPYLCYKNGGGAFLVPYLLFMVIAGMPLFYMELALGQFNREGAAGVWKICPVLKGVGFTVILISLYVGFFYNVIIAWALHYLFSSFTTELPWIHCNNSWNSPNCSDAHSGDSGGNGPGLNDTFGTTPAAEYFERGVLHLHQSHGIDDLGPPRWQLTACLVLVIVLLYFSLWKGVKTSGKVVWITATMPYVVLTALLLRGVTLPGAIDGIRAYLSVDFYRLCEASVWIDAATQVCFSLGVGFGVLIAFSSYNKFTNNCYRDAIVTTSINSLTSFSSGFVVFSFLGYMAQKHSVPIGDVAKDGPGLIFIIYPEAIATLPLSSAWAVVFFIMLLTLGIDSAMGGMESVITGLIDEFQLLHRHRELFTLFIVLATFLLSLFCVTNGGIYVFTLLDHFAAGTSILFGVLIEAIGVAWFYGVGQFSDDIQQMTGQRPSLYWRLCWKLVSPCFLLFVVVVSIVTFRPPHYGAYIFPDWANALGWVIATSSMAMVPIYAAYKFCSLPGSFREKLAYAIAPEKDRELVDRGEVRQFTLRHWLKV
T1 sequence (Q7JHP9 1-620): as above

SMILES	accumulation in thalamus, hypothalamus or midbrain (regions rich in 5-HT transporters) (DAT sites in striatum [1])	time after injection to excellent contrast between striatum and the rest of the brain (DAT sites in striatum [2]) [min]	accumulation of radioactivity in striatum vs other areas of the brain (SPECT images) (DAT sites in striatum [2])	striatal to occipital cortex ratio (DAT sites in striatum [2])	striatal accumulation after MPTP treatment compared with normal animals (DAT sites in striatum [3])	radiation dose to target organ (urinary bladder) ([4]; MIRdose calculations from rat biodistribution) [rem/mCi]	total body effective dose ([4]; MIRdose estimate from rat biodistribution) [rem/mCi]	clearance from tissues (biodistribution) [4]	striatal accumulation after a receptor saturating dose of unlabeled CFT (DAT sites; CFT 1.0 mg/kg at about 20 min, by 60 minutes after injection)	accumulation in the striatum (SPECT images) (DAT sites; before injection of CFT)	time after injection to excellent contrast between striatum and the rest of the brain (DAT sites; before the effect of CFT) [min]
CCC(=O)C1C(c2ccc(F)cc2)CC2CCC1N2CCCN1CC[S][99Tc]2(=[O])[S]CC[N]2C(=O)C1 (stereo not drawn) [Compound O-1505T, N-[(2-((3′-N′-Propyl-(1″R)-2″β-1-propanoyl-3″α-(4-fluorophenyl)-tropane)-(2-mercaptoethyl)amino)acetyl)-2-aminoethanethiolato]technetium (V) Oxide]	lack of accumulation	≤ 30	high concentrations of radiopharmaceutical in the striatum with minimal accumulation in other areas of the brain	~2.5	the level of accumulation decreased markedly and the striatum could not be differentiated from surrounding structures	0.29	0.037	cleared rapidly from all tissues of the rat	no evidence of focal accumulation in the striatum	significant accumulation	≤ 30
CCC(=O)C1C(c2ccc(Cl)c(Cl)c2)CC2CCC1N2CCCN1CC[S][99Tc]2(=[O])[S]CC[N]2C(=O)C1 (stereo not drawn) [Compound O-1561T, N-[(2-((3′-N′-Propyl-(1″R)-2″β-1-propanoyl-3″α-(3,4-dichlorophenyl)-tropane)(2-mercaptoethyl)amino)acetyl)-2-aminoethanethiolato]-technetium (V) Oxide]	lack of accumulation	≤ 30	high concentrations of radiopharmaceutical in the striatum with minimal accumulation in other areas of the brain	~2.5				cleared rapidly from all tissues of the rat			
